The record followed here is patent US20250270180A1, “MEK INHIBITORS AND THERAPEUTIC USES THEREOF” (Immuneering Corporation, priority 2020, published 2025).

SMILES strings stand for the structures.

For test [1], the system named is A549 pERK. As to the kind of experiment: A549-pERK, 2 h (quantitative Western, Jess). The test is classed as cell-based. Particulars: Homo sapiens, A549, 2 h, 10 nM, phospho:total ratio normalized to DMSO control. On the procedure: (§1) A549 or […] cells were treated in duplicate for two hours with compounds at varying concentrations. After two hours, the cells were lysed, snap frozen, and stored at −80° C. After storage, the lysate was quantified with the Bradford assay. Before the lysates were prepared to run on the Jess, the lysates were diluted to 1 mg/mL for pERK analysis and 1.5 mg/mL pMEK analysis using quantitative Western blotting. ERK and MEK phosphorylation levels were estimated by taking the ratio of phospho-protein to total protein and normalizing to the DMSO control. The results of this study are described in Tables 14-16.

Test [2] has as its system A549 CRAF BP (MEK phosphorylation). As to the kind of experiment: A549-CRAF BP 100 nM, 2 h (pMEK). The test is classed as cell-based. Particulars: Homo sapiens, A549, 2 h, phospho:total ratio normalized to DMSO control. As for the experimental part: as §1

Take `CNS(=O)(=O)Nc1cccc(Cc2c(CN(C)c3ccc(Cl)cc3)c3ccc(OC(=O)N(C)C)cc3oc2=O)c1F` [Compound 97]: the activity at 0.01 µM in test [1] is 56.5%. Besides, the activity at 0.1 µM in test [2] amounted to 52.1%.
The matching figures for `CNS(=O)(=O)Nc1cccc(Cc2c(C)c3cc(Cl)c(OC(=O)N(C)C)cc3oc2=O)c1F` [Compound 109]: 4.51% and 41.9%.
The matching figures for `CNS(=O)(=O)Nc1cccc(Cc2c(CN(C)C3CC3)c3ccc(OC(=O)N(C)C)cc3oc2=O)c1F` [Compound 82]: 64.9% and 72.3%.
The matching figures for `CNS(=O)(=O)Nc1cccc(Cc2c(C)c3cc(C)c(OC(=O)N(C)C)cc3oc2=O)c1F` [Compound 108]: 5.78% and 47.9%.
As for `CNS(=O)(=O)Nc1cccc(Cc2c(CN(C)C3CCC3)c3ccc(OC(=O)N(C)C)cc3oc2=O)c1F` [Compound 86], the activity at 0.01 µM in test [1] came out at 96.4%. Besides, the activity at 0.1 µM in test [2] amounted to 53.2%.
The matching figures for `CCS(=O)(=O)Nc1nccc(Cc2c(CN(C)C)c3ccc(OC(=O)N(C)C)cc3oc2=O)c1F` [Compound 148]: 49.6% and 56.5%.
The matching figures for `CCS(=O)(=O)Nc1cccc(Cc2c(CN3CCNCC3)c3cc(Cl)c(OC(=O)N(C)C)cc3oc2=O)c1F` [Compound 147]: 21.7% and 46.4%.
The matching figures for `CNS(=O)(=O)Nc1cccc(Cc2c(CNc3ccsc3)c3ccc(OC(=O)N(C)C)cc3oc2=O)c1F` [Compound 90]: 72.4% and 71%.
On to `CCCN(C)Cc1c(Cc2cccc(NS(=O)(=O)NC)c2F)c(=O)oc2cc(OC(=O)N(C)C)ccc12` [Compound 81], for which, in test [1], the activity at 0.01 µM was found to be 57.6%. Moreover, the activity at 0.1 µM in test [2] came to 78.3%.
The matching figures for `CNS(=O)(=O)Nc1cccc(Cc2c(CN3CC(OC)C3)c3ccc(OC(=O)N(C)C)cc3oc2=O)c1F` [Compound 74]: 75.3% and 59.2%.
The matching figures for `CNS(=O)(=O)Nc1cccc(Cc2c(CN(C)CC(C)C)c3ccc(OC(=O)N(C)C)cc3oc2=O)c1F` [Compound 78]: 78.6% and 64.2%.
The matching figures for `CNS(=O)(=O)Nc1cccc(Cc2c(CN(C)C)c3cc(F)c(OC(=O)N(C)C)cc3oc2=O)c1F` [Compound 25]: 66.2% and 71%.
As to `Cc1c(Cc2cccc(NS(=O)(=O)C(C)C)c2F)c(=O)oc2cc(OC(=O)N(C)C)ccc12` [Compound 115], the activity at 0.01 µM in test [1] is 13.5%. Further, in test [2], the activity at 0.1 µM is 39.2%.
On to `Cc1c(Cc2ccnc(NS(=O)(=O)C(C)C)c2F)c(=O)oc2cc(OC(=O)N(C)C)ccc12` [Compound 114], for which the activity at 0.01 µM in test [1] came out at 36.6%. The activity at 0.1 µM in test [2] was 59.9%.
The matching figures for `CNS(=O)(=O)Nc1cccc(Cc2c(CNCC#N)c3ccc(OC(=O)N(C)C)cc3oc2=O)c1F` [Compound 33]: 55.4% and 51.4%.
The matching figures for `CNS(=O)(=O)Nc1cccc(Cc2c(CN(C)C)c3cc(Cl)c(OC(=O)N(C)C)cc3oc2=O)c1F` [Compound 24]: 42.4% and 55.9%.
The matching figures for `CCS(=O)(=O)Nc1nccc(Cc2c(C)c3ccc(OC(=O)N(C)C)cc3oc2=O)c1F` [Compound 119]: 64.8% and 66.1%.
As for `CNS(=O)(=O)Nc1cccc(Cc2c(CNCC(F)(F)F)c3ccc(OC(=O)N(C)C)cc3oc2=O)c1F` [Compound 75], the activity at 0.1 µM in test [2] came out at 66.5%.
With `CNS(=O)(=O)Nc1nccc(Cc2c(C)c3cc(Cl)c(OC(=O)N(C)C)cc3oc2=O)c1F` [Compound 111], the activity at 0.01 µM in test [1] came to 4.63%. Further, in test [2], the activity at 0.1 µM is 48.6%.
On to `Cc1c(Cc2ccnc(NS(=O)(=O)C3CC3)c2F)c(=O)oc2cc(OC(=O)N(C)C)ccc12` [Compound 112], for which the activity at 0.01 µM in test [1] was 46.3%. The activity at 0.1 µM in test [2] was 52.9%.
The matching figures for `CNS(=O)(=O)Nc1cccc(Cc2c(CN(C)CC3CC3)c3ccc(OC(=O)N(C)C)cc3oc2=O)c1F` [Compound 84]: 83.2% and 87.3%.
The matching figures for `CNS(=O)(=O)Nc1cccc(Cc2c(CN(C)Cc3ccccc3)c3ccc(OC(=O)N(C)C)cc3oc2=O)c1F` [Compound 80]: 56.4% and 56.1%.
The matching figures for `Cc1c(Cc2cccc(NS(=O)(=O)C3CC3)c2F)c(=O)oc2cc(OC(=O)N(C)C)ccc12` [Compound 113]: 24.7% and 48%.
On to `CNS(=O)(=O)Nc1cccc(Cc2c(CN(C)c3ccccc3)c3ccc(OC(=O)N(C)C)cc3oc2=O)c1F` [Compound 79], for which the activity at 0.1 µM in test [2] came out at 45.2%.
Turning to `CNS(=O)(=O)Nc1cccc(Cc2c(CN(C)CC3CCC3)c3ccc(OC(=O)N(C)C)cc3oc2=O)c1F` [Compound 88], the activity at 0.01 µM in test [1] turned out to be 142%. Further, the activity at 0.1 µM in test [2] stood at 53.6%.
For `CNS(=O)(=O)Nc1nccc(Cc2c(CN(C)C)c3cc(F)c(OC(=O)N(C)C)cc3oc2=O)c1F` [Compound 140], in test [1], the activity at 0.01 µM is 65%. For the same molecule, in test [2], the activity at 0.1 µM came out at 70.3%.
The matching figures for `CNS(=O)(=O)Nc1cccc(Cc2c(CNc3cncs3)c3ccc(OC(=O)N(C)C)cc3oc2=O)c1F` [Compound 91]: 74.6% and 84.2%.
The matching figures for `CNS(=O)(=O)Nc1nccc(Cc2c(C)c3cc(C)c(OC(=O)N(C)C)cc3oc2=O)c1F` [Compound 110]: 5.92% and 56.6%.
The matching figures for `CCN(CC)Cc1c(Cc2cccc(NS(=O)(=O)NC)c2F)c(=O)oc2cc(OC(=O)N(C)C)ccc12` [Compound 73]: 77.7% and 33.9%.
With `Cc1c(Cc2cccc(NS(=O)(=O)C3CCC3)c2F)c(=O)oc2cc(OC(=O)N(C)C)ccc12` [Compound 118], the activity at 0.01 µM in test [1] was 21.1%. The activity at 0.1 µM in test [2] came out at 39.1%.
The matching figures for `CCS(=O)(=O)Nc1cccc(Cc2c(C)c3ccc(OC(=O)N(C)C)cc3oc2=O)c1F` [Compound 107]: 18% and 39.9%.
Take `Cc1c(Cc2ccnc(NS(=O)(=O)C3CCC3)c2F)c(=O)oc2cc(OC(=O)N(C)C)ccc12` [Compound 125]: the activity at 0.01 µM in test [1] came to 54.4%. The activity at 0.1 µM in test [2] came out at 41.7%.
The matching figures for `CCS(=O)(=O)Nc1cccc(Cc2c(CN(C)C)c3cc(Cl)c(OC(=O)N(C)C)cc3oc2=O)c1F` [Compound 132]: 62.6% and 57.8%.
The matching figures for `CNS(=O)(=O)Nc1cccc(Cc2c(CN(C)CC#N)c3ccc(OC(=O)N(C)C)cc3oc2=O)c1F` [Compound 87]: 63.8% and 95.8%.
With `CNS(=O)(=O)Nc1cccc(Cc2c(CN3CC(C)(C)C3)c3ccc(OC(=O)N(C)C)cc3oc2=O)c1F` [Compound 143], the activity at 0.01 µM in test [1] stood at 104%.
Still for that read-out and setting: as for `CNS(=O)(=O)Nc1cccc(Cc2c(CC(=O)Nc3ccon3)c3ccc(OC(=O)N(C)C)cc3oc2=O)c1F` [Compound 201], the figure is 119%.
